Laboratory results published in patent US11952582B2, “Herbicide-resistance gene and application thereof in plant breeding” (priority 2017, dated 2024).

Experiments:
[1] = system: GmHPPD, HST, HPT, MPQMT and TC gene expression in soybean seedlings; test: qPCR of HPPD and tocopherol biosynthesis genes in soybean after herbicide treatment; type: in vivo; details: 20 μM, 12 h
Protocol: 4 week-old T1 generation seedlings of WT, OE GmHPPD and OE PaHPPD-SDM were used as materials to set up a treatment group and a control group, respectively, wherein the treatment group was continuously cultured in ½ MS liquid medium containing 20 μM mesotrione for 12 h. The total RNA of related materials was extracted using Super Fast Plant RNA Extraction Kit (Beijing Huayueyang Biological Technology Co., Ltd., China). The concentration of RNA samples was measured using NanoDrop ND1000 (Thermo Scientific, USA). RNA samples with an absorbance ratio (at wavelengths of 260/280 nm and 260/230 nm) of approximately 2.0 were selected. The total RNA (1,000 ng) was then used for synthesis of cDNA for reverse transcription using a cDNA synthesis kit (One-step Removal of Transcript gDNA and cDNA Synthesis Super Kit, TransGen).
As for quantitative reverse transcription PCR analysis, 3.0 μL cDNA was used as a template in a 20 μL reaction system, and gene-specific primers such as qGmHPPD F and qGmHPPD R were used for GmHPPD gene, qGmHST F and qGmHST R were used for […] gene (alkapton lycopene transferase gene), qGmHPT F and qGmHPT R were used for GmHPT or VTE2 genes, GmMPQMT F and MPQMT R were used for GmMPQMT methyl transferase genes (also known as VTE3), GmTC F and GmTC R were used for GmTC genes (also known as VTE1, tocopherol cyclase gene). These VTE (1, 2 and 3) genes were selected because they encode the key enzymes involved in tocopherol biosynthesis. Three technical repetitions were performed on the Bio-Rad CFX96 real-time system. REST software was used for statistical analysis.

[2] = system: WT and T0 OE SDM rice leaves; test: Oxidative stress indexes of rice leaves (NBT, DAB staining); type: in vivo; details: 1 week; for O2 and H2O2 accumulation in leaves (NBT, DAB): 200 μM
Protocol: Herbicides cause the production of reactive oxygen species (ROS), leading to cell death. In order to determine the oxidation state of rice, leaves of wild-type and TO-generation OE SDM rice which were sprayed with 200 μM mesotrione (prepared with 0.1% Tween-20) and sprayed with control 0.1% Tween-20 were collected, and stained with nitroblue tetrazolium (NBT) and 3,3-diaminobenzidine (DAB), respectively, to analyze the accumulation of superoxide (O2^−) and hydrogen peroxide (H2O2).
At the end of the herbicide treatment, leaves of 4 week-old rice (normal growth for 3 weeks and herbicide spray treatment for 1 week) were placed in a 3.5 mg mL^−1 nitroblue tetrazolium (N6876, Sigma-Aldrich) staining solution (potassium phosphate buffer containing 10 mM NaN3), soaked in vacuum, and shaked on a shaker overnight. The NBT-stained plants were destained with a mixed solution of acetic acid:glycerol:ethanol=1:1:3 (v/v/v) at 100° C. for 5 min, and then reserved in a mixed solution of glycerol:ethanol=1:4 (v/v).
Rice seedling leaves were soaked in DAB staining solution for 2 min under vacuum, and then placed in a shaker for 7-8 h. The DAB-stained plants were destained with a mixed solution of acetic acid:glycerol:ethanol=1:1:3 (v/v/v) at 100° C. for 5 min, and then reserved in a mixed solution of glycerol:ethanol=1:4 (v/v).

For `CS(=O)(=O)c1ccc(C(=O)C2C(=O)CCCC2=O)c([N+](=O)[O-])c1` [mesotrione], which “expression levels of GmHPPD and MPQMT genes compared with control” value ([1]; OE GmHPPD T1 line) is on record?
The value was “decreased”.

What about the “expression levels of HST, HPT and TC genes compared with control” value ([1]; OE GmHPPD T1 line) of the same compound?
Its value is “increased”.

What about the “expression levels of GmHPPD and HPT genes compared with control” value ([1]; OE PaHPPD-SDM T1 line) of the same compound?
The value was “up-regulated”.

What about the “expression levels of HST, MPQMT and TC genes compared with control” value ([1]; OE PaHPPD-SDM T1 line) of the same compound?
The value was “almost unchanged”.

And the “expression of GmHPPD, HST, HPT, MPQMT and TC genes compared with control” value ([1]; wild-type William 82)?
Its value is “significantly reduced”.

And the “contents of superoxide, H2O2 and MDA in WT rice leaves compared with OE SDM rice leaves” value ([2]; 200 μM spray)?
The value was “significantly higher”.

What about the “O2 and H2O2 accumulation in leaves (NBT, DAB)” value ([2]; OE SDM rice) of the same compound?
The value was “little”.

What about the “O2 and H2O2 accumulation in leaves (NBT, DAB)” value ([2]; WT rice) of the same compound?
The value was “large number”.
